# Data taken from publication PMC9528225 (Molecular Immunology, 2012).
# Biological target: HLA-DR15 (DRB1*1501) (Homo sapiens, UniProt P01903+P01911)
# Test: biochemical
# Assay type: binding
structure (smiles),measurement,value
CC(C)C[C@H](NC(=O)[C@H](Cc1ccc(O)cc1)NC(=O)[C@H](C)NC(=O)[C@H](CCCNC(=N)N)NC(=O)[C@H](CC(C)C)NC(=O)[C@H](CCC(N)=O)NC(=O)[C@H](CCC(=O)O)NC(=O)[C@H](C)NC(=O)[C@@H](N)CCC(=O)O)C(=O)N[C@@H](CC(=O)O)C(=O)NCC(=O)N[C@H](C(=O)NCC(=O)N[C@H](C(=O)N[C@@H](CCC(=O)O)C(=O)O)C(C)C)[C@@H](C)O [A3 152–166],IC50,18 nM
